Reference: PubChem BioAssay (NCI)
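Cells were grown in 96-well plates and exposed to each compound for 48 hours at five concentrations; endpoints were interpolated linearly between bracketing concentrations, or set to the highest concentration if not reached. The concentration for 50% growth inhibition is given as GI50. At the TGI there is no net growth.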

What was measured:
Assay in all cases: growth of human tumour cells (NCI), 48 h
ACHN renal = tested on: ACHN renal
MCF7 breast = tested on: MCF7 breast
SF-268 CNS = tested on: SF-268 CNS
HCC-2998 colon = tested on: HCC-2998 colon
CAKI-1 renal = tested on: CAKI-1 renal
OVCAR-3 ovarian = tested on: OVCAR-3 ovarian
HCT-116 colon = tested on: HCT-116 colon
SN12C renal = tested on: SN12C renal
RPMI-8226 leukemia = tested on: RPMI-8226 leukemia
SNB-19 CNS = tested on: SNB-19 CNS
786-0 renal = tested on: 786-0 renal
NCI-H460 lung = tested on: NCI-H460 lung
SK-MEL-28 melanoma = tested on: SK-MEL-28 melanoma
HCT-15 colon = tested on: HCT-15 colon
MOLT-4 leukemia = tested on: MOLT-4 leukemia
UACC-62 melanoma = tested on: UACC-62 melanoma
SK-OV-3 ovarian = tested on: SK-OV-3 ovarian
MDA-MB-231 breast = tested on: MDA-MB-231 breast
HT29 colon = tested on: HT29 colon
SK-MEL-5 melanoma = tested on: SK-MEL-5 melanoma
CCRF-CEM leukemia = tested on: CCRF-CEM leukemia
HOP-62 NSCLC = tested on: HOP-62 NSCLC
T-47D breast = tested on: T-47D breast
NCI-H226 lung = tested on: NCI-H226 lung
SW-620 colon = tested on: SW-620 colon
BT-549 breast = tested on: BT-549 breast
UO-31 renal = tested on: UO-31 renal
EKVX NSCLC = tested on: EKVX NSCLC
LOX IMVI melanoma = tested on: LOX IMVI melanoma
KM12 colon = tested on: KM12 colon
MDA-MB-435 = tested on: MDA-MB-435
U251 CNS = tested on: U251 CNS
IGROV1 ovarian = tested on: IGROV1 ovarian
SF-539 CNS = tested on: SF-539 CNS
NCI-H23 lung = tested on: NCI-H23 lung
HOP-92 NSCLC = tested on: HOP-92 NSCLC
SF-295 CNS = tested on: SF-295 CNS
COLO 205 colon = tested on: COLO 205 colon
A549 NSCLC = tested on: A549 NSCLC
NCI/ADR-RES ovarian = tested on: NCI/ADR-RES ovarian
PC-3 prostate = tested on: PC-3 prostate
HS 578T breast = tested on: HS 578T breast
SNB-75 CNS = tested on: SNB-75 CNS
OVCAR-4 ovarian = tested on: OVCAR-4 ovarian
MALME-3M melanoma = tested on: MALME-3M melanoma
DU-145 prostate = tested on: DU-145 prostate
OVCAR-5 ovarian = tested on: OVCAR-5 ovarian
HL-60(TB) leukemia = tested on: HL-60(TB) leukemia
M14 melanoma = tested on: M14 melanoma
A498 renal = tested on: A498 renal
K-562 leukemia = tested on: K-562 leukemia
TK-10 renal = tested on: TK-10 renal
UACC-257 melanoma = tested on: UACC-257 melanoma
NCI-H522 lung = tested on: NCI-H522 lung
RXF 393 renal = tested on: RXF 393 renal
OVCAR-8 ovarian = tested on: OVCAR-8 ovarian
SK-MEL-2 melanoma = tested on: SK-MEL-2 melanoma
SR leukemia = tested on: SR leukemia

## CCCCCCCCCCCCn1c(C)nc2ccccc21
ACHN renal
  GI50: 13.2 µM
  TGI: 26.5 µM
MCF7 breast
  GI50: 5.15 µM
  TGI: 23.3 µM
SF-268 CNS
  GI50: 19.6 µM
  TGI: 41.1 µM
HCC-2998 colon
  GI50: 2.6 µM
  TGI: 18 µM
CAKI-1 renal
  GI50: 14 µM
  TGI: 31.2 µM
OVCAR-3 ovarian
  GI50: 14.7 µM
  TGI: 30.2 µM
HCT-116 colon
  GI50: 712 nM
  TGI: 13 µM
SN12C renal
  GI50: 14.4 µM
  TGI: 31.1 µM
RPMI-8226 leukemia
  GI50: 614 nM
  TGI: 10.3 µM
SNB-19 CNS
  GI50: 13.5 µM
  TGI: 26.3 µM
786-0 renal
  GI50: 11.5 µM
  TGI: 24 µM
NCI-H460 lung
  GI50: 10.5 µM
  TGI: 24.3 µM
SK-MEL-28 melanoma
  GI50: 19.4 µM
  TGI: 34.5 µM
HCT-15 colon
  GI50: 12.3 µM
  TGI: 27.4 µM
MOLT-4 leukemia
  GI50: 10.2 µM
  TGI: 23.5 µM
UACC-62 melanoma
  GI50: 13.1 µM
  TGI: 26.9 µM
SK-OV-3 ovarian
  GI50: 13.6 µM
  TGI: 26.5 µM
MDA-MB-231 breast
  GI50: 15.3 µM
  TGI: 34.8 µM
HT29 colon
  GI50: 11.6 µM
  TGI: 23.7 µM
SK-MEL-5 melanoma
  GI50: 984 nM
  TGI: 18.2 µM
CCRF-CEM leukemia
  GI50: 2790 nM
  TGI: 21.2 µM
HOP-62 NSCLC
  GI50: 12.4 µM
  TGI: 25.5 µM
T-47D breast
  GI50: 325 nM
  TGI: 19.1 µM
NCI-H226 lung
  GI50: 12.7 µM
  TGI: 31.7 µM
SW-620 colon
  GI50: 15.4 µM
  TGI: 30.7 µM
BT-549 breast
  GI50: 12 µM
  TGI: 28.7 µM
UO-31 renal
  GI50: 7.58 µM
  TGI: 20.6 µM
EKVX NSCLC
  GI50: 1720 nM
  TGI: 19.3 µM
LOX IMVI melanoma
  GI50: 3720 nM
  TGI: 20.5 µM
KM12 colon
  GI50: 14.3 µM
  TGI: 29 µM
MDA-MB-435
  GI50: 12.8 µM
  TGI: 28.8 µM
U251 CNS
  GI50: 11 µM
  TGI: 24.9 µM
IGROV1 ovarian
  GI50: 14.7 µM
  TGI: 28.3 µM
SF-539 CNS
  GI50: 13.7 µM
  TGI: 27 µM
NCI-H23 lung
  GI50: 490 nM
  TGI: 11.5 µM
HOP-92 NSCLC
  GI50: 11 µM
  TGI: 23.9 µM
SF-295 CNS
  GI50: 8.87 µM
  TGI: 26.6 µM
COLO 205 colon
  GI50: 13.2 µM
  TGI: 27.4 µM
A549 NSCLC
  GI50: 400 nM
  TGI: 20.7 µM
NCI/ADR-RES ovarian
  GI50: 2550 nM
  TGI: 12.9 µM
PC-3 prostate
  GI50: 2470 nM
  TGI: 15.8 µM
HS 578T breast
  GI50: 27.7 µM
  TGI: 48.3 µM
SNB-75 CNS
  GI50: 16.2 µM
  TGI: 30.3 µM
OVCAR-4 ovarian
  GI50: 12.7 µM
  TGI: 25.6 µM
MALME-3M melanoma
  GI50: 16.2 µM
  TGI: 33.6 µM
DU-145 prostate
  GI50: 17.2 µM
  TGI: 35.4 µM
OVCAR-5 ovarian
  GI50: 4.78 µM
  TGI: 17.6 µM
HL-60(TB) leukemia
  GI50: 2540 nM
  TGI: 18.5 µM
M14 melanoma
  GI50: 13.7 µM
  TGI: 26.6 µM
A498 renal
  GI50: 12.4 µM
  TGI: 25.5 µM
K-562 leukemia
  GI50: 1110 nM
  TGI: 16.4 µM
TK-10 renal
  GI50: 11.2 µM
  TGI: 25.5 µM

## COc1ccc(-c2nn(-c3cccc(Cl)c3)cc2C=C(C#N)C#N)cc1
ACHN renal
  GI50: 2.64 µM
  TGI: 8.82 µM
MCF7 breast
  GI50: 2.35 µM
  TGI: 7.72 µM
SF-268 CNS
  GI50: 2.5 µM
  TGI: 9.14 µM
UACC-257 melanoma
  GI50: 1820 nM
  TGI: 5.27 µM
HCC-2998 colon
  GI50: 3.67 µM
  TGI: 14 µM
OVCAR-3 ovarian
  GI50: 2.2 µM
  TGI: 4.9 µM
HCT-116 colon
  GI50: 1730 nM
  TGI: 4.44 µM
SN12C renal
  GI50: 3.35 µM
  TGI: > 100 µM
RPMI-8226 leukemia
  GI50: 2300 nM
  TGI: 7.1 µM
SNB-19 CNS
  GI50: 2.63 µM
  TGI: > 100 µM
786-0 renal
  GI50: 2.25 µM
  TGI: 6.36 µM
NCI-H460 lung
  GI50: 2.05 µM
  TGI: 5.37 µM
SK-MEL-28 melanoma
  GI50: 2.35 µM
  TGI: 5.84 µM
HCT-15 colon
  GI50: 3.24 µM
  TGI: > 100 µM
MOLT-4 leukemia
  GI50: 2.12 µM
  TGI: 6.12 µM
UACC-62 melanoma
  GI50: 2.39 µM
  TGI: 10.6 µM
SK-OV-3 ovarian
  GI50: 2.66 µM
  TGI: 5.72 µM
MDA-MB-231 breast
  GI50: 2.03 µM
  TGI: 5.14 µM
HT29 colon
  GI50: 2.48 µM
  TGI: 5.56 µM
SK-MEL-5 melanoma
  GI50: 2280 nM
  TGI: 5.87 µM
CCRF-CEM leukemia
  GI50: 1430 nM
  TGI: 4.76 µM
NCI-H522 lung
  GI50: 2210 nM
  TGI: 5.76 µM
HOP-62 NSCLC
  GI50: 2.59 µM
  TGI: 6.04 µM
T-47D breast
  GI50: 3340 nM
  TGI: 21.8 µM
NCI-H226 lung
  GI50: 2.74 µM
  TGI: 11.8 µM
RXF 393 renal
  GI50: 1850 nM
  TGI: 4.99 µM
SW-620 colon
  GI50: 1.9 µM
  TGI: 5.45 µM
BT-549 breast
  GI50: 1.55 µM
  TGI: 4.05 µM
UO-31 renal
  GI50: 2.21 µM
  TGI: 7.88 µM
LOX IMVI melanoma
  GI50: 2080 nM
  TGI: 4.81 µM
KM12 colon
  GI50: 2.83 µM
  TGI: 8.86 µM
U251 CNS
  GI50: 1.59 µM
  TGI: 3.33 µM
IGROV1 ovarian
  GI50: 2.85 µM
  TGI: 6.29 µM
SF-539 CNS
  GI50: 2.3 µM
  TGI: 5.44 µM
NCI-H23 lung
  GI50: 2680 nM
  TGI: 7.66 µM
HOP-92 NSCLC
  GI50: 1.26 µM
  TGI: 3.98 µM
SF-295 CNS
  GI50: 2.31 µM
  TGI: 5.31 µM
COLO 205 colon
  GI50: 4.04 µM
  TGI: 10.5 µM
NCI/ADR-RES ovarian
  GI50: 2490 nM
  TGI: 7.17 µM
HS 578T breast
  GI50: 1.57 µM
  TGI: 7.04 µM
SNB-75 CNS
  GI50: 1.81 µM
  TGI: 4.51 µM
OVCAR-4 ovarian
  GI50: 2.29 µM
  TGI: 6.48 µM
OVCAR-8 ovarian
  GI50: 2200 nM
  TGI: 5.77 µM
MALME-3M melanoma
  GI50: 2.66 µM
  TGI: 7.76 µM
DU-145 prostate
  GI50: 3.55 µM
  TGI: 90.1 µM
SK-MEL-2 melanoma
  GI50: 2370 nM
  TGI: 4.83 µM
OVCAR-5 ovarian
  GI50: 3.68 µM
  TGI: 48.4 µM
HL-60(TB) leukemia
  GI50: 2390 nM
  TGI: 6.37 µM
M14 melanoma
  GI50: 2.39 µM
  TGI: 6.92 µM
A498 renal
  GI50: 1.23 µM
  TGI: 5.95 µM
K-562 leukemia
  GI50: 2010 nM
  TGI: 10.4 µM
TK-10 renal
  GI50: 2.6 µM
  TGI: 6.48 µM
SR leukemia
  GI50: 1540 nM
  TGI: 3.66 µM
